In US9381191B2, “Imidazopyridine derivatives useful in treating diabetes” (METABRAIN RESEARCH, priority 2012, dated 2016):

Tested on: isolated rat hepatocytes
Assay: Hepatic production of glucose, 3 h incubation
Format: cell-based, Wistar rat
Details: for activity at 50 µM / activity at 100 µM: Hepatocyte, rat hepatocytes; for activity at 50 µM: read-out: HGP % of ctrl @ 50 μM; for activity at 100 µM: read-out: HGP % of ctrl @ 100 μM
Experimental: The hepatocytes are isolated from Wistar rat liver having fasted for 24 h after perfusion of collagenase in the portal vein. 1) The freshly isolated hepatocytes are sown in 6-well plates coated with collagen and containing an adhesion medium (Williams Medium). After adhesion, the medium is replaced with RPMI 1640 medium without any glucose, containing hydrocortisone (7·10^−5M) for a duration from 16 to 18 h. The next day, the glucose hepatic production test is conducted in a Krebs medium for 3 h. The basal conditions are cells incubated with only Krebs, the stimulated conditions are the cells placed in Krebs+lactate+pyruvate, the produced conditions are the cells exposed to chemical compounds in a Krebs/lactate/pyruvate medium. In the case when the compounds are dissolved in DMSO, all the conditions of the tests are met in the presence of a final concentration of 0.1% DMSO. The positive control of the test is the mercaptopicolinate known for its inhibitory action on hepatic production of glucose via the phosphoenolpyruvate carboxykinase. For short term treatments, the compounds are incubated for 3 h. For long term treatments, the compounds are incubated for 20 h at the moment when the hepatocytes are cultivated in RPMI and then added during the hepatic production test for 3 h. At the end of the 3 hours of incubation, the supernatant is recovered for measurement of glucose with a colorimetric method using glucose oxidase. The cells are lysed with a 0.1% NaOH aqueous solution in order to measure the amount of protein with the Lowry method. The results are expressed in mmol of glucose per mg of protein.

Row | Compound | activity at 50 µM [%] | activity at 100 µM [%] | inhibition of hepatic production of glucose (with two doses) | inhibition of hepatic production of glucose (dose of 100 μM)
1 | CCOC(=O)COCc1nc2ccccn2c1C#Cc1ccc(OC)cc1 [Derivative 4, ethyl 2-((3-((4-methoxyphenyl)-ethynyl)-imidazo[1,2-a]pyridin-2-yl)-methoxy)acetate] | 81 | 74 | – | –
2 | CCOC(=O)COCc1nc2ccccn2c1C#Cc1cccc(C(F)(F)F)c1 [Derivative 7, ethyl 2-((3-((3-(trifluoromethyl)-phenyl)ethynyl)imidazo[1,2-a]pyridin-2-yl)methoxy)acetate] | 55 | 45 | strongest inhibitions | –
3 | CCOC(=O)COCc1nc2ccccn2c1C#Cc1ccc(F)c(F)c1 [Derivative 10, ethyl 2-((3-((3,4-difluorophenyl)-ethynyl)imidazo[1,2-a]pyridin-2-yl)methoxy)acetate] | 86 | 71 | – | –
4 | CCOC(=O)COCc1nc2ccccn2c1C#Cc1cccc(F)c1 [Derivative 23, ethyl 2-((3-((3-fluorophenyl)-ethynyl)imidazo[1,2-a]pyridin-2-yl)methoxy)acetate] | 95 | 73 | – | –
5 | O=C(O)COCc1nc2ccccn2c1C#Cc1cccc(OC(F)(F)F)c1 [Derivative 29, 2-((3-((3-(trifluoromethoxy)phenyl)-ethynyl)imidazo[1,2-a]pyridin-2-yl)methoxy)acetic acid] | 63 | 40 | – | strongest inhibitions
6 | COc1cccc(C#Cc2c(COCC(=O)O)nc3ccccn23)c1 [Derivative 30, 2-((3-((3-methoxyphenyl)ethynyl)-imidazo[1,2-a]pyridin-2-yl)methoxy)acetic acid] | 74 | 60 | – | –
7 | O=C(O)COCc1nc2ccccn2c1C#Cc1cccc(OC(F)F)c1 [Derivative 35, 2-((3-((3-(difluoromethoxy)phenyl)-ethynyl)imidazo[1,2-a]pyridin-2-yl)methoxy)acetic acid] | 73 | 64 | – | –
8 | O=C([O-])COCc1nc2ccccn2c1C#Cc1cccc(C(F)(F)F)c1.[Na+] [Derivative 51, sodium 2-((3-((3-(trifluoromethyl)-phenyl)ethynyl)imidazo[1,2-a]pyridin-2-yl)methoxy)acetate] | 61 | 45 | – | strongest inhibitions
9 | COC(=O)c1ccccc1OCc1nc2ccccn2c1C#Cc1cccc(C(F)(F)F)c1 [Derivative 77, methyl 2-((3-((3-(trifluoromethyl)-phenyl)ethynyl)imidazo[1,2-a]pyridin-2-yl)methoxy)benzoate] | 87 | 50 | – | strongest inhibitions
10 | O=C(O)c1ccccc1OCc1nc2ccccn2c1C#Cc1cccc(C(F)(F)F)c1 [Derivative 89, 2-((3-((3-(trifluoromethyl)phenyl)-ethynyl)imidazo[1,2-a]pyridin-2-yl)methoxy)benzoic acid] | 78 | 33 | – | strongest inhibitions
11 | O=C(O)c1ccc(OCc2nc3ccccn3c2C#Cc2cccc(C(F)(F)F)c2)cc1 [Derivative 90, 4-((3-((3-(trifluoromethyl)phenyl)-ethynyl)imidazo[1,2-a]pyridin-2-yl)methoxy)benzoic acid] | 77 | 27 | – | strongest inhibitions
12 | O=C(O)c1cccc(OCc2nc3ccccn3c2C#Cc2ccccc2)c1 [Derivative 93, 3-((3-(phenylethynyl)imidazo[1,2-a]pyridin-2-yl)methoxy) benzoic acid] | 26 | 19 | strongest inhibitions | –
13 | CN(C)CCNC(=O)c1ccccc1OCc1nc2ccccn2c1C#Cc1ccc(F)cc1 [Derivative 95, N-(2-(dimethylamino)ethyl)-2-((3-((4-fluorophenyl)ethynyl)-imidazo[1,2-a]pyridin-2-yl)methoxy)benzamide] | 65 | 62 | – | –
14 | O=C(NO)c1ccccc1OCc1nc2ccccn2c1C#Cc1ccc(F)cc1 [Derivative 96, 2-((3-((4-fluorophenyl)ethynyl)-imidazo[1,2-a]pyridin-2-yl)-methoxy)-N-hydroxybenzamide] | 81 | 66 | – | –
15 | CC1(C)COC(=O)C1OCc1nc2ccccn2c1C#Cc1cccc(C(F)(F)F)c1 (stereo not shown) [Derivative 99, 4,4-dimethyl-3-[[3-[2-[3-(trifluoromethyl)phenyl]ethynyl]imidazo[1,2-a]pyridin-2-yl]methoxy]-tetrahydrofuran-2-one] | 85 | 68 | – | –
16 | CCOC(=O)CSCc1nc2ccccn2c1C#Cc1cccc(C(F)(F)F)c1 [Derivative 108, ethyl 2-[[3-[2-[3-(trifluoromethyl)-phenyl]ethynyl]imidazo[1,2-a]pyridin-2-yl]methylsulfanyl]acetate] | 89 | 64 | – | –
17 | CCOC(=O)CSCc1nc2ccccn2c1C#Cc1cccc(OC(F)(F)F)c1 [Derivative 109, ethyl 2-[[3-[2-[3-(trifluoromethoxy)-phenyl]ethynyl]imidazo[1,2-a]pyridin-2-yl]methylsulfanyl]acetate] | 80 | 61 | – | –
18 | O=C(O)CSCc1nc2ccccn2c1C#Cc1cccc(C(F)(F)F)c1 [Derivative 115, 2-[[3-[2-[3-(trifluoromethyl)phenyl]-ethynyl]imidazo[1,2-a]pyridin-2-yl]methylsulfanyl]acetic acid] | 94 | 54 | – | strongest inhibitions
19 | O=C(O)CSCc1nc2ccccn2c1C#Cc1cccc(OC(F)(F)F)c1 [Derivative 116, 2-[[3-[2-[3-(trifluoromethoxy)-phenyl]ethynyl]imidazo[1,2-a]pyridin-2-yl]methylsulfanyl] acetic acid] | 88 | 64 | – | –
20 | O=C(O)CSCc1nc2ccc(Cl)cn2c1C#Cc1cccc(OC(F)(F)F)c1 [Derivative 119, 2-[[6-chloro-3-[2-[3-(trifluoro-methoxy)phenyl]ethynyl]imidazo [1,2-a]pyridin-2-yl]methyl-sulfanyl]acetic acid] | 73 | – | – | –
21 | O=C(CSCc1nc2ccccn2c1C#Cc1cccc(OC(F)(F)F)c1)Nc1cccnc1 [Derivative 126, N-(3-pyridyl)-2-[[3-[2-[3-(trifluoromethoxy)phenyl]ethynyl]imidazo[1,2-a]pyridin-2-yl]methylsulfanyl]acetamide] | 72 | 68 | – | –
